Laboratory results from patent publication US9102629B2, “Polymorphic forms of 4-phenylamine quinazoline derivative, the preparation method and uses thereof” (priority 2008, dated 2015).

Columns and labels:
[1] = Light stability test (illumination 4500 lx±500 lx); type: physicochemical; conditions: p-Toluenesulfonate; for Purity (%): illumination 4500 lx±500 lx
Source text: The purity of Form A was detected at 0, 10 and 30 days, which was based to deduce to the light stability of Form A. The light stability of Form B and Form C were also deduced by this method.

[2] = Thermal stability test (storage at 60° C.); type: physicochemical; conditions: p-Toluenesulfonate; for Purity (%): stored at 60° C.
Source text: The purity of Form A was detected at 0, 10 and 30 days, which was based to deduce the thermal stability of Form A. The thermal stability of Form B and Form C were also deduced by this method.

[3] = Drug absorption in SD rat, intragastric administration; type: in vivo, SD rat (Sprague Dawley rat); conditions: ig, 30 mg/kg, plasma, p-Toluenesulfonate
Procedure: Intragastric administration (ig): 16 healthy SD rats, male, weighed 200˜250 g, and grouped into 4 groups randomly, were each administered intragastrically with a drug:the compound (21.68 mg/kg) prepared according to Example 1, Form A, B or C of p-toluenesulfonate of the compound (30 mg/kg). The blood samples were collected at 0.5, 1.0, 1.5, 2.0, 3.0, 5.0, 7.0, 9.0, 12 and 24 hours after administration, which were then isolated to prepare the plasma. The concentration of the drug in the plasma was determined by means of liquid chromatography/mass spectrometry, and the concentration-time curve was obtained.

[4] = tested on: human ovarian cancer SKOV-3; experiment: Tumor-inhibitory effect on SKOV-3 transplanted to nude mouse; type: in vivo, BALB/cA nude mouse; conditions: 100 mg/kg ig twice a day
Procedure: A tumor SKOV-3 in vigorous growth period was selected and cut into several uniform bits of a size of about 1.5 mm^3, which was inoculated subcutaneously to the right armpit of the BALB/cA nude mice using trocar under sterile conditions. The diameters of the transplanted tumors of nude mice were measured with a vernier caliper. The animals were grouped randomly when the tumors grew to a size of 80-100 mm^3. The tested animal group were intragastrically administrated through mouth as mentioned above once a day for 3 weeks continuously. The positive control drug MMC (Mitomycin) was intravenously administered once on the first day with a dose of 5 mg/kg. The negative control group were administered with 0.5% CMC-Na (Carboxymethyl Cellulose Sodium) with a dose of 0.2 mL/per mouse. The long axis (a) and the short axis (b) of the tumors were measured twice every week and the nude mice were weighed at the same time. According to the formula V=ab^2/2, the tumor volume (mm^3) could be calculated, based on which the relative tumor volume (RTV) was calculated (Calculation Formula: RTV=Vt/V0, wherein V0 represents the tumor volume measured at the grouping time of administration, and Vt represents the tumor volume measured each time). The relative tumor proliferation rate T/C (%) was chosen as the index to evaluate the anti-tumor activity, which can be calculated according to the following formula: T/C (%)=(TRTV/CRTV)×100
TRTV: RTV of the treated group; CRTV: RTV of the negative control group
V0 represents the tumor volume before the administration, and V21 represents the tumor volume after 3 weeks of continuous administration.
According to the experimental method mentioned above, the tumor-bearing nude mice, into which the human ovarian cancer SKOV-3, the human lung cancer Calu-3, and the human lung cancer A549 were transplanted respectively, were intragastrically administrated with Form B (100 mg/kg) of the present invention through mouth twice a day for 3 weeks continuously.
According to the experimental method mentioned above, the tumor-bearing nude mice, into which the human ovarian cancer SKQV-3, the human lung cancer Calu-3, and the human lung cancer A549 were transplanted respectively, were intragastrically administrated with Form C (100 mg/kg) of the present invention through mouth twice a day for 3 weeks continuously.

human lung cancer A549 = experiment: Tumor-inhibitory effect on A549 transplanted to nude mouse; type: in vivo, nude mice; conditions: 100 mg/kg ig twice a day, 3 weeks, p-Toluenesulfonate
Procedure: (§1) The diameters of the transplanted tumors of nude mice were measured with a vernier caliper. The animals were grouped randomly when the tumors grew to a size of 80-100 mm^3. […] The positive control drug MMC (Mitomycin) was intravenously administered once on the first day with a dose of 5 mg/kg. The negative control group were administered with 0.5% CMC-Na (Carboxymethyl Cellulose Sodium) with a dose of 0.2 mL/per mouse. The long axis (a) and the short axis (b) of the tumors were measured twice every week and the nude mice were weighed at the same time. […] RTV=Vt/V0, wherein V0 represents the tumor volume measured at the grouping time of administration, and Vt represents the tumor volume measured each time). The relative tumor proliferation rate T/C (%) was chosen as the index to evaluate the anti-tumor activity, which can be calculated according to the following formula: T/C (%)=(TRTV/CRTV)×100 TRTV: RTV of the treated group; CRTV: RTV of the negative control group The standard for evaluating the effectiveness: […]

[5] = Toxicity test of long-term administration; type: in vivo; conditions: SD rats, ig, 20, 50, 100, 500 or 800 mg/(kg·day), four weeks
Procedure: 80 healthy SD rats, male and weighed 200˜250 g, were grouped into 16 groups randomly, and were each intragastrically administered with Form A, B or C of the p-toluenesulfonate of the compound of formula (I) or a blank solvent (Five test groups with the dose of 20, 50, 100, 500 or 800 mg/(kg·day) and a solvent control group were set).

[6] = Hygroscopicity test (high moisture environment of 92.5%); type: physicochemical; conditions: p-Toluenesulfonate; for Purity (%): high moisture environment of 92.5%
Source text: The purity of Form A was detected at 0, 10 and 30 days, which was based to deduce the hygroscopicity of Form A. The hygroscopicities of Form B and Form C were also deduced by this method.

human lung cancer Calu-3 = experiment: Tumor-inhibitory effect on Calu-3 transplanted to nude mouse; type: in vivo, nude mice; conditions: 100 mg/kg ig twice a day, 3 weeks, p-Toluenesulfonate
Procedure: as §1

Structure (SMILES): C=CC(=O)Nc1ccc2ncnc(Nc3ccc(OCc4cccc(F)c4)c(Cl)c3)c2c1.Cc1ccc(S(=O)(=O)O)cc1 [Form B, N-{4-[3-chloro-4-(3-fluoro-benzyloxy)phenylamino]-quinazolin-6-yl}-acrylamide p-Toluenesulfonate]
- light stability ([1]; 4500 lx±500 lx, one month, in words): excellent
- Purity (%) ([1]; detect time 0): 99.26%
- Purity (%) ([1]; detect time 10): 99.26%
- Purity (%) ([1]; detect time 30): 99.24%
- thermal stability ([2]; 60° C., one month, in words): excellent
- Purity (%) ([2]; detect time day 0): 99.26%
- Purity (%) ([2]; detect time day 10): 99.21%
- Purity (%) ([2]; detect time day 30): 99.11%
- AUC0-t [3]: 978 ng·h/mL
- relative tumor proliferation rate T/C ([4]; SKOV-3, 3 weeks, p-Toluenesulfonate): 28.5%
- tumor inhibitory effects ([4]; summary in words for SKOV-3, Calu-3 and A549 models): significant tumor inhibitory effects
- relative tumor proliferation rate T/C (human lung cancer A549): 56.3%
- food intake [5]: normal
- physical signs, appearance, behaviors, activities or shape of dejecta [5]: no abnormality
- weight and weight increase of the rats [5]: basically similar to the solvent control group
- stability under the environment of high moisture ([6]; 92.5% moisture, one month, in words): very stable
- Purity (%) ([6]; detect time 0): 99.26%
- Purity (%) ([6]; detect time 10): 99.25%
- Purity (%) ([6]; detect time 30): 99.24%
- relative tumor proliferation rate T/C (human lung cancer Calu-3): 35.1%
